Assays:
[1] = tested on: RAW264.7 rat macrophage cell line; assay: MTT assay, normal cells RAW264.7; type: cell-based; conditions: MTT assay, 48 hours, RAW264.7
Description: (§1) The cytotoxicity against normal cells and cancer cells was confirmed using the MTT assay for the novel compounds KP2 to KP8 prepared in Example 1.
(§2) MTT assay method is as follows:
(§3) Normal cells (RAW264.7 rat macrophage cell line (osteoblast progenitor cell) and NIH3T3 mouse fibroblast line) and cancer cells (AGS human gastric cancer cell line, A549 human lung cancer cell line, HepG2 human liver cancer cell line, HCT116 human colon cancer cell line, PC3 human prostate cancer Cell line, Caki-1 human kidney cancer cell line, T24 human bladder cancer cell line, HT1080 human fibrosarcoma cell line, B16F10 mouse melanoma cell line) were cultured in 5% CO2 in 96-well plates containing DMEM with 10% FBS (fetal bovine serum). After incubation, KP2 to KP8 and controls (osmundacetone and 4-hydroxybenzalacetone) were added to the cell medium and incubated for 48 hours. Thereafter, 100 μl of MTT (0.5 mg/mL phosphate buffered saline) was added, followed by incubation for 2 hours. 100 μl of DMSO was added to each well, followed by incubation for 10 minutes, and the absorbance was measured at 550 nm using a microplate reader (SPCTRA MAX 340PC, Molecular Devices, USA). Absorbance is calculated by the formula below as an indicator of the number of cells that survived, and reproducibility was confirmed by three experiments.
(§4) The rate of cell proliferation (%)=OD550(sample)/OD550(control)

[2] = tested on: NIH3T3 mouse fibroblast line; assay: MTT assay, normal cells NIH3T3; type: cell-based; conditions: MTT assay, 48 hours, NTH3T3
Description: as §1, §2, §3, §4

[3] = tested on: AGS human gastric cancer cell line; assay: MTT assay, cancer cells AGS; type: cell-based; conditions: 48 hours
Description: as §1, §2, §3, §4

[4] = tested on: A549 human lung cancer cell line; assay: MTT assay, cancer cells A549; type: cell-based; conditions: MTT assay, 48 hours, A549
Description: as §1, §2, §3, §4

[5] = tested on: HepG2 human liver cancer cell line; assay: MTT assay, cancer cells HepG2; type: cell-based; conditions: MTT assay, 48 hours, HepG2
Description: as §1, §2, §3, §4

[6] = tested on: HCT116 human colon cancer cell line; assay: MTT assay, cancer cells HCT116; type: cell-based; conditions: MTT assay, 48 hours, HCT116
Description: as §1, §2, §3, §4

[7] = tested on: PC3 human prostate cancer Cell line; assay: MTT assay, cancer cells PC3; type: cell-based; conditions: 48 hours
Description: as §1, §2, §3, §4

[8] = tested on: Caki-1 human kidney cancer cell line; assay: MTT assay, cancer cells Caki-1; type: cell-based; conditions: 48 hours
Description: as §1, §2, §3, §4

[9] = tested on: T24 human bladder cancer cell line; assay: MTT assay, cancer cells T24; type: cell-based; conditions: MTT assay, 48 hours, T24
Description: as §1, §2, §3, §4

[10] = tested on: HT1080 human fibrosarcoma cell line; assay: MTT assay, cancer cells HT1080; type: cell-based; conditions: 48 hours
Description: as §1, §2, §3, §4

[11] = tested on: B16F10 mouse melanoma cell line; assay: MTT assay, cancer cells B16F10; type: cell-based; conditions: 48 hours, H16F10
Description: as §1, §2, §3, §4

[12] = tested on: osteoclast differentiation from bone marrow cells (RANKL and M-CSF); assay: TRAP assay, osteoclast differentiation and proliferation; type: cell-based, C57BL/6 mice; conditions: TRAP-positive multinucleated cells, mouse bone marrow cells, 6-7 days; read-out: osteoclast differentiation inhibitory activity IC50
Procedure: The specific method of the TRAP assay is as follows:
The tibia and femur were aseptically excised from 6 to 8 weeks old male C57BL/6 mice, and bone marrow cells were collected aseptically with a syringe (21G, Korea Green Cross). Bone marrow cells were suspended in 500 μl of -MEM medium (Gibco BRL Co.) containing sodium bicarbonate (2.0 g/L), streptomycin (100 mg/L) and penicillin ([…]), and aliquoted into a 48-well plate, and assay was carried out with triplicate. The progenitor cells of osteoclasts, monocytes, were isolated and treated with RANKL and M-CSF, which are differentiation promoters, to differentiate into osteoclasts within 5-7 days.
1) Sample preparation: KP2 to KP8 (0.5 μM, 1 μM, 5 μM or 10 μM), Fosamax (0.5 μM, 1 μM, 5 μM, or 10 μM) and the like were dissolved in DMSO (dimethylsulfoxide) or sterile distilled water at appropriate concentrations, respectively.
2) Sample administration: The Samples were continuously administered to the medium at 1:20 (v/v; 25 μL of sample per 500 μL of medium) from the first day of culture of bone marrow cells, and the medium was replaced at 3 days intervals.
3) Osteoclast differentiation measurement: Osteoclasts were defined as TRAP-positive multinucleated cells stained with TRAP. […] The reaction reagents were stored in the refrigerator until use.
Bone marrow cells were cultured in a medium containing differentiation factors for 6-7 days, and then the medium was removed, washed with PBS, and fixed in PBS containing 10% formalin for 2-5 minutes. After fixed for 1 minute with a 1:1 mixture of ethanol and acetone, and dried. The fixed cells were treated with TRAP staining solution for 60 minutes at 37° C. with light blocking, washed with PBS, and then stained with Hematoxylin.
Among the TRAP-positive cells in the microscope field, cells with two or more nuclei were determined as osteoclasts and the number of cells was measured.

[13] = tested on: osteoblasts (mouse MC3T3-E1); assay: ALP (Alkaline phosphatase) assay, osteoblast activity; type: cell-based; conditions: MC3T3-E1, 14 days, percentage against control
Procedure: Effect of KP4 to KP6 on proliferation and differentiation of osteoblast were confirmed using ALP (Alkaline phosphatase) assay, a method for measuring osteoblast activity.
Alkaline phosphatase (ALP), which is present in the cell membranes of osteoblasts, is known as a marker of osteoblast activity and is a regulator of inorganic phosphate transport, cell division or differentiation during calcification. Therefore, ALP activity was measured to determine the effect of the compounds of the present invention on the activity of osteoblasts. ALP activity was indirectly calculated by measuring the amount of p-nitrophenol, which is produced from hydrolysis of p-nitrophenyl phosphate (pNPP, Sigma, St. Louis, Mo., USA) in which ALP act as a catalyst, using a microplate reader at 405 nm wavelength.
Specifically, osteoblasts (mouse MC3T3-E1) were aliquoted into a 96-well plate (3×10^3 cells/100 μL/well) with α-MEM medium containing ascorbic acid (50 μg/mL) and 10 mM β-glycerophosphate, a differentiation factors of osteoblast. Then, KP4 to KP6 of the present invention, and osmundacetone were added at a final concentration of 10 μM and 50 μM, followed by changing medium every 72 hours and incubating for 14 days. After 14 days, the culture medium was removed from each well, washed three times with PBS, lysed with 0.2% Nonidet P-40/10 mmol/L MgCl2, and then treated ultrasonic wave with sosonifier cell disrupter (Model W-380, Heat Systems-Ultrasonics Inc., Farmingdale, N.Y.) for 3 minutes. The cell lysate was centrifuged at 1500 g for 10 minutes and the supernatant was collected to measure ALP activity. To account for changes in ALP activity according to cell number differences, total protein levels were measured using bicinchoninic acid (BCA) protein assay kit with bovine serum albumin as the standard protein, and enzyme activity was expressed as a percentage against the control group without the compound treatment.

**Q.** What does the source list for `CC(=O)/C=C/c1ccc(O)c(O)c1` [Osmundacetone, reference compound]?
**A.** LD50 Normal cells RAW264.7 [1]: 529 ± 41 µM; LD50 Normal cells NTH3T3 [2]: >5000 µM; LD63 Cancer cell AGS [3]: 56.1 ± 2.1 µM; LD63 Cancer cell A549 [4]: >5000 µM; LD63 Cancer cell HepG2 [5]: >5000 µM; LD63 Cancer cell HCT116 [6]: 689 ± 27 µM; LD63 Cancer cell PC3 [7]: 60.6 ± 14 µM; LD63 Cancer cell Caki-1 [8]: 695 ± 14 µM; LD63 Cancer cell T24 [9]: 2000 ± 250 µM; LD63 Cancer cell HT1080 [10]: >5000 µM; Cytotoxicity, B16F10 cells [11]: 64.9 ± 59 µM; IC50 [12]: 8 µM; % Activation of ALP activity ([13]; 10 μM): 115 ± 9.4%; % Activation of ALP activity ([13]; 50 μM): 279 ± 61%

Reference: US11629121B2, “Benzylideneacetone derivative and use thereof” (KORPHARM CO., LTD., priority 2017, dated 2023)
